This note sets out measurements from EP1095650A1, “Double phase time-controlled release system” (Universiteit Leiden, priority 1999, dated 2001).

This series in a line: Dissolution / release profile of BAEE from the delivery system (USP XXIII dissolution paddle apparatus). The class given is physicochemical. The following applies: PBS pH 7.2, 37±1°C, 100 rpm. As for the experimental part:
The dissolution of a coated and a non-coated delivery system according to the present invention was investigated by using the standard USP XXIII dissolution paddle apparatus. The paddle speed was 100 rpm and the dissolution medium was phosphate buffer solution (PBS) pH 7.2 at 37±1°C. PBS was prepared according to the method of USP XXIII. Three replicates for each sample were tested at specific interval times and their mean percent release was calculated.
Two release patterns of example 1, showing the release profiles of BAEE from the system with and without a gelatin enteric coating (capsule) are depicted in Figures 6 and 7, respectively.
Data are expressed as mean ± standard deviation (SD, n=6). (Standard USP XXIII dissolution apparatus is used with Phosphate Buffer Solution (PBS) pH = 7.2 as a dissolution medium. Temperature was 37±1°C and paddle speed was 100 rpm).
Data are expressed as mean ±SD (n=6). (Standard USP XXIII dissolution apparatus is used with PBS pH = 7.2 as a dissolution medium. Temperature was 37±1°C and paddle speed was 100 rpm).

`CCOC(=O)[C@H](CCCN=C(N)N)NC(=O)c1ccccc1` [BAEE, N-α-benzoyl-L-arginine ethylester]: under “system of Example 1 inserted in gelatin capsule and enteric-coated (Figure 7), compared with non-coated system”, the lag time result is given as “increased”. Besides, for the setting “system of Example 1 not inserted in gelatin capsule (Figure 6), within a short period of time”, the “amount of drug released after the lag time” value is recorded as “whole amount of drug is released”.
